Reference: patent publication US20110166428A1, “NOVEL METHOD FOR MEASURING INSULIN RESISTANCE” (UNIVERSITE JOSEPH FOURIER, priority 2008, published 2011)
Where “and” joins values, the source holds several entries; their conditions need not be identical. Identical values can stand only once.

What was measured:
[1] = system: Zucker rats (insulin resistant); assay: Sensitivity of the empirical index of glucose transport into the heart, Rosiglitazone vs placebo; format: in vivo, rat; details: three weeks after treatment
Excerpt: (§1) This graph represents the mean obtained during the calculations of empirical descriptor in the heart, in the Zucker rat, with or without treatment with Rosiglitazone or with a placebo. The values of the descriptor are shown on the y-axis. The x-axis comprises 4 columns: the two on the left and the two on the right; the two on the left relate to the values observed for the rats at the start of observation before any injection, and the two on the right relate to the rats 21 days after injection. The white columns indicate rats having undergone an injection of Rosiglitazone, the black columns indicate rats having undergone an injection of a placebo.
The rat receives a first bolus of 6-DIG labelled with iodine 123 (about 250 μCi, this activity being counted in a Capintec CRC15R ionisation chamber supplied by Aries, France) in the basal condition. The activity of the 6-DIG is monitored with the gamma camera (field of view 10 cm, intrinsic resolution 1.8 mm, Biospace, France) in cardiac cells for 20 minutes. During these 20 minutes, the radioactivity is counted in “LIST” mode and analysed a posteriori.
The rat then receives an injection of insulin (2.5 IU/kg), performed 5 minutes before a second injection of the tracer (about 250 μCi). The activity of the 6-DIG is again monitored with the gamma camera in cardiac cells for 20 minutes. […]

[2] = system: Zucker rats (insulin resistant); assay: Sensitivity of the empirical index of glucose transport into the skeletal muscle, Rosiglitazone vs placebo; format: in vivo, rat; details: three weeks after treatment
Excerpt: This graph represents the mean obtained during calculations of the empirical descriptor in the skeletal muscle, in the Zucker rat, with or without treatment with Rosiglitazone or with a placebo. The values of the descriptor are shown on the y-axis. The x-axis comprises 4 columns: the two on the left and the two on the right; the two on the left relate to the values observed for the rats at the start of observation before any injection, and the two on the right relate to the rats 21 days after injection. The white columns indicate rats having undergone an injection of Rosiglitazone, the black columns indicate rats having undergone an injection of a placebo.
The rat receives a first bolus of 6-DIG labelled with iodine 123 (about 250 μCi, this activity being counted in a Capintec CRC15R ionisation chamber supplied by Aries, France) in the basal condition. The activity of the 6-DIG is monitored with the gamma camera (field of view 10 cm, intrinsic resolution 1.8 mm, Biospace, France), or with the NaI probe (Scintibloc from Crismatec (Nemours, France) and ScintiSPEC, Aries) in skeletal muscle cells (quadriceps of hind paw) for 20 minutes. During these 20 minutes, the radioactivity is counted in “LIST” mode (TD. Cradduck, Computers in Nuclear Medicine, Vol. 5; No. 1, 1985, Radiographics) and analysed a posteriori […]

[3] = system: Zucker rats (insulin resistant); assay: Sensitivity of the theoretical index k(2,1) insulin/basal of glucose transport into the heart, Rosiglitazone vs placebo; format: in vivo, rat; details: seven days after treatment, p<0.05, FIG. 18
Excerpt: as §1, with “during” for “during the”, “the theoretical index” for “empirical descriptor”, “index” for “descriptor”, “7” for “21”
The model utilised is a three-compartment mammillary model, derived from that used to measure the kinetic parameters of transport of 3OMG, the reference tracer for glucose transport (Cobelli, 1989; Am. J. Physiol., 257, E444-E450). It makes it possible to study the biological behaviour of the tracer after injection in the rat in vivo (Slimani L. et al., CR Biol, 2002, 325(4), 529-546). The central compartment (s1) represents the plasma. […] The radioactivity measured at the level of compartments 1 and 2 is designated respectively as q1 and q2. […]
The index characterizing the rate of glucose transport into the heart was measured twice, 7 days apart, on the same animal, treated with Rosiglitazone or a placebo. […]

[4] = Scintigraphy of 123I-6DIG in the dog: thoracic and blood activity, fasting or under GIK; format: in vivo; details: for slope of cardiac activity measured between 2 and 5 minutes: dog heart, FIG. 8
Procedure: This graph represents on the y-axis the variations in […], for one pixel and in the quantity (in mCi) of 6DIG injected, in relation to the x-axis which represents the data acquisition time in minutes, in the heart of a dog. The measured activity is related to the number of pixels, since when a region of interest is determined on a scintigraphy image, the number of pixels in the manually selected zone is not always the same.
Two series of data are shown; a first series of measurements indicated by linked squares represents the data recorded for a fasting animal. A second series of data, indicated by linked circles, represents the data recorded for an animal perfused with a GIK solution (Glucose/Insulin/potassium).
Animals: male beagle dogs aged about 1 year, weighing between 15 and 20 kg and fed with a standard diet Jape 21 (Ets L. Pietrement).
The dogs, premedicated with an intramuscular injection of ketamine (10 mg/kg), are anaesthetised by means of an intravenous injection of sodium thiopental (25 mg/kg). The animals are intubated and ventilated throughout the experiment and kept asleep with halothane in the ventilation circuit (oxygen-enriched air).
6DIG (20 μmol) labelled with iodine 123 (about 4 mCi) is injected intravenously. The scintigraphy images are acquired by means of a standard gamma camera equipped with a high resolution collimator and the […] is set at 160 keV with a 20% window. The variation in the thoracic radioactivity (heart, lungs and liver) with time is measured for 30 minutes post-injection, at the rate of one image per minute. The change in the blood activity is obtained by taking blood samples (1, 2, 3, 4, 5, 10. 15, 20 and 30 min p.i.) and the measurement of the radioactivity by means of a gamma counter (Packard).
Two protocols were followed, the first was implemented in fasting animals (withdrawal of food the night before the experiment, n=1) and the second was implemented in animals perfused with a GIK (Glucose/Insulin/Potassium) solution containing in particular insulin (30% glucose, 4 g/l of KCl and 80 IU/kg of insulin, n=2) and maintained throughout the experiment.

Row | Structure (SMILES) | empirical descriptor (empirical index of rate of glucose transport into the heart) vs rats treated with placebo ([1]; p=0.006, FIG. 12) | empirical descriptor (empirical index of rate of glucose transport into the heart) vs same rats before treatment ([1]; p=0.033, FIG. 12) | empirical descriptor (empirical index of rate of glucose transport into the skeletal muscle) vs rats treated with placebo ([2]; p=0.005, FIG. 16) | empirical descriptor (empirical index of rate of glucose transport into the skeletal muscle) vs same rats before treatment ([2]; p=0.021, FIG. 16) | index characterizing the rate of glucose transport into the heart (theoretical index) vs rats treated with placebo [3] | slope of cardiac activity measured between 2 and 5 minutes ([4]; fasting) | slope of cardiac activity measured between 2 and 5 minutes ([4]; under GIK perfusion) | blood activity ([4]; dog, i.v., blood samples, gamma counter) | pulmonary activity ([4]; dog, i.v., gamma camera) | activity in the liver ([4]; dog, i.v., gamma camera, 30 minutes post-injection)
1 | CN(CCOc1ccc(CC2SC(=O)NC2=O)cc1)c1ccccn1 (racemic) [Rosiglitazone, (±)-5-[[4-[2-(methyl-2-pyridinylamino)ethoxy]phenyl]methyl]-2,4-thiazolidinedione] | significantly greater | significantly greater | significantly greater | significantly greater | significantly greater |  |  |  |  | 
2 | O=C[C@H](O)[C@@H](O)[C@H](O)[C@H](O)CI [6DIG, 6-Deoxy-6-Iodo-D-Glucose] |  |  |  |  |  | 0.013 | 0.044 and 0.022 | decreases very rapidly | low and comparable to the background noise | greatest in the liver at 5 minutes but decreases rapidly
